These results are taken from PMC8692581, “A specific inhibitor of ALDH1A3 regulates retinoic acid biosynthesis in glioma stem cells” (Communications Biology, 2021).

Experiment [1] has as its target T1, ALDH1A1 (Homo sapiens, UniProt P00352).
T1 construct: full-length, N-term 6xHis tagged
T1 sequence (P00352 1-501): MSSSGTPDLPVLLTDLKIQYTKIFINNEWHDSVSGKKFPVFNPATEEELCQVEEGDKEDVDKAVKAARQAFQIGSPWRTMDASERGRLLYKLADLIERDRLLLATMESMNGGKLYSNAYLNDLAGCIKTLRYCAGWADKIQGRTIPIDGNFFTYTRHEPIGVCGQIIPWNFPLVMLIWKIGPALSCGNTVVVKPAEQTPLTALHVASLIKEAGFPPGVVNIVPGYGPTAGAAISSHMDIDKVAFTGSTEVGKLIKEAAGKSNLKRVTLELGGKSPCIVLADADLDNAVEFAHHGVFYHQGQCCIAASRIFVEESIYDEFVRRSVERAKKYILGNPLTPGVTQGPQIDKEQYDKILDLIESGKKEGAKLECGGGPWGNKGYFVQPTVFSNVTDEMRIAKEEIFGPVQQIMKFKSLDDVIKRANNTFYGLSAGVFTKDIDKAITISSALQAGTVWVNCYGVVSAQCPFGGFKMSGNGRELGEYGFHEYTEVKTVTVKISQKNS
Briefly: steady-state enzyme kinetics, NADH absorbance at […] nm ([…] activity retained at […] inhibitor). It is filed as biochemical.

The target in experiment [2] is T2, ALDH1A3 (Homo sapiens, UniProt P47895).
T2 construct: full-length, N-term 6xHis tagged
T2 sequence (P47895 1-512): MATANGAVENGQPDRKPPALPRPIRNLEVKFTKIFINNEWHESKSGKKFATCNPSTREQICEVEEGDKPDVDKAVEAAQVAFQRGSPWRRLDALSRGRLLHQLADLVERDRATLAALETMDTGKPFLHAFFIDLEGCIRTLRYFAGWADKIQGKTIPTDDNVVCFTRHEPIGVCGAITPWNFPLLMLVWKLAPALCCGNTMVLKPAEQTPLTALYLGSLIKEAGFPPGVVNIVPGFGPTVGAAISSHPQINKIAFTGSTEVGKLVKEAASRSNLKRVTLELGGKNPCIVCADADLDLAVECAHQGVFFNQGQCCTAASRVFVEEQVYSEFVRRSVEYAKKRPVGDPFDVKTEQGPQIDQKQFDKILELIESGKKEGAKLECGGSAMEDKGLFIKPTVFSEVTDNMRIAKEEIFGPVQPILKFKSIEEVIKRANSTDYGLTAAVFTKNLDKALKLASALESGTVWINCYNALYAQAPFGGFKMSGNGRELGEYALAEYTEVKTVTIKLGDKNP
Briefly: X-ray co-crystal structure ([…] Å); steady-state enzyme inhibition kinetics (IC50 […]); thermal shift MS in GSC-326 lysate. It is filed as biochemical.

Experiment [3] deals with T2, ALDH1A3. Briefly: X-ray crystal structure ([…] Å), ternary with MCI-INI-3; crystals grown with […] NAD+. In kind it is binding.

For `COC(=O)c1cc(-c2ccc3c(c2)OCO3)nc2cc(-c3ccccc3)nn12` [MCI-INI-3], the inhibition constant (Ki) in experiment [1] stood at 78.2 ± 14.4 µM; in experiment [2], 0.55 ± 0.11 µM.

`NC(=O)c1ccc[n+]([C@@H]2O[C@H](COP(=O)([O-])OP(=O)(O)OC[C@H]3O[C@@H](n4cnc5c(N)ncnc54)[C@H](O)[C@@H]3O)[C@@H](O)[C@H]2O)c1` [NAD^+]: the “X-ray crystal structure (2.8 Å), ternary with MCI-INI-3; crystals grown with 1 m” value in experiment [3] was “The ligands NAD^+ and MCI-INI-3 are shown as gray and black sticks”.

In general, Ki refers to the equilibrium dissociation constant of an inhibitor or competing ligand from its target.
